Laboratory results: ChEMBL document CHEMBL1201862, “PubChem BioAssay data set” (2004)
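All cell lines were grown in 96-well plates and treated with compound for 48 hours. At the GI50, growth is halved.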 Active and inactive are the calls of the source. Cut-off read from the data, not from the text of the source: active = GI50 up to about 1.1 µM and inactive = higher.

Assays:
Experiment in all cases: DTP human tumour cell line panel, 48 h
HCT-116 = test system: HCT-116
NCI-H522 = test system: NCI-H522
A549 = test system: A549
SF-295 = test system: SF-295
RXF 393 = test system: RXF 393
CAKI-1 = test system: CAKI-1
HCT-15 = test system: HCT-15
NCI-H226 = test system: NCI-H226
OVCAR-5 = test system: OVCAR-5
SF-539 = test system: SF-539
HCC 2998 = test system: HCC 2998
HT-29 = test system: HT-29
NCI-H23 = test system: NCI-H23
SK-MEL-2 = test system: SK-MEL-2
NCI-H460 = test system: NCI-H460
K562 = test system: K562
HOP-92 = test system: HOP-92

Compound | GI50 (HCT-116) | GI50 (NCI-H522) | GI50 (A549) | GI50 (SF-295) | GI50 (RXF 393) | GI50 (CAKI-1) | GI50 (HCT-15) | GI50 (NCI-H226) | GI50 (OVCAR-5) | GI50 (SF-539) | GI50 (HCC 2998) | GI50 (HT-29) | GI50 (NCI-H23) | GI50 (SK-MEL-2) | GI50 (NCI-H460) | GI50 (K562) | GI50 (HOP-92)
CCOC(=N)CC(=O)Nc1ccccc1CC | > 100 µM (inactive) | > 100 µM (inactive) | > 100 µM (inactive) | > 100 µM (inactive) | > 100 µM (inactive) | > 100 µM (inactive) | > 100 µM | > 100 µM (inactive) | > 100 µM (inactive) | > 100 µM (inactive) | 98.9 µM (inactive) | > 100 µM (inactive) | > 100 µM (inactive) | > 100 µM (inactive) | > 100 µM (inactive) | > 100 µM (inactive) | 
CC1=C(C(=O)Nc2ccc([N+](=O)[O-])cc2)C(c2ccc3c(c2)OCO3)C(C(=O)Nc2ccc([N+](=O)[O-])cc2)=C(C)N1 | 10.1 µM (inactive) | 24.1 µM (inactive) | 24.2 µM (inactive) | 8.34 µM (inactive) | 25.3 µM (inactive) | 23.7 µM (inactive) | 8.09 µM | 14.7 µM (inactive) | 59.7 µM (inactive) | 27.7 µM (inactive) | 7.05 µM (inactive) | 6.95 µM (inactive) | 5.78 µM (inactive) | 6.68 µM (inactive) | 10 µM (inactive) | 4.15 µM (inactive) | 4.08 µM (inactive)
CC(Oc1ccc2cc(C(=O)c3ccccc3)c(=O)oc2c1)C(=O)O (stereo unspecified) | > 100 µM (inactive) | > 100 µM (inactive) | > 100 µM (inactive) | > 100 µM (inactive) | > 100 µM (inactive) | > 100 µM (inactive) |  | > 100 µM (inactive) |  | > 100 µM (inactive) | > 100 µM (inactive) | > 100 µM (inactive) | > 100 µM (inactive) |  | > 100 µM (inactive) | > 100 µM (inactive) | > 100 µM (inactive)
C[C@@H]1C(=O)CC2C(C)(C)CCC[C@]2(C)[C@@]12CC[C@]1(C=COC1)O2 (stereo partly specified) | 30.2 µM (inactive) | 19.2 µM (inactive) | 36.1 µM (inactive) | 36.6 µM (inactive) | 16 µM (inactive) | 64.3 µM (inactive) | 30.5 µM | 91 µM (inactive) | > 100 µM (inactive) | 39.5 µM (inactive) | 38.1 µM (inactive) | 28.2 µM (inactive) |  | 22.7 µM (inactive) | 32.8 µM (inactive) | 24.3 µM (inactive) | 13.8 µM (inactive)
COC(=O)C1CC/C(=N/c2ccc(C)cc2C)N1 (stereo unspecified) | > 100 µM (inactive) | > 100 µM (inactive) | > 100 µM (inactive) | > 100 µM (inactive) |  | > 100 µM (inactive) | > 100 µM | > 100 µM (inactive) | > 100 µM (inactive) |  | > 100 µM (inactive) | > 100 µM (inactive) | > 100 µM (inactive) | > 100 µM (inactive) | > 100 µM (inactive) | > 100 µM (inactive) | > 100 µM (inactive)
CN1C(=O)C(=O)N2c3ccc(Cl)cc3C3(c4ccccc4)N=CC12O3 (stereo unspecified) | 3.9 µM (inactive) | 2.4 µM (inactive) | 10.8 µM (inactive) | 11.1 µM (inactive) | 1.9 µM (inactive) | 5.13 µM (inactive) | 3.24 µM | 10.1 µM (inactive) | 6.93 µM (inactive) | 3.27 µM (inactive) | 14.7 µM (inactive) | 4.55 µM (inactive) | 4.13 µM (inactive) | 6.01 µM (inactive) | 6.03 µM (inactive) | 3.45 µM (inactive) | 2.39 µM (inactive)
CC(C)(C)C#C[P+](c1ccccc1)(c1ccccc1)c1ccccc1 | 0.177 µM (active) | 0.15 µM (active) | 0.253 µM (active) | 0.292 µM (active) | 0.329 µM (active) | 0.804 µM (active) | 0.655 µM | 0.33 µM (active) | 1.15 µM (inactive) | 0.373 µM (active) | 0.293 µM (active) | 0.292 µM (active) | 0.353 µM (active) | 0.409 µM (active) | 0.152 µM (active) | 0.0498 µM (active) | 0.194 µM (active)
COC(=O)c1c[nH]cc1CCc1c[nH]cc1C(=O)OC | > 100 µM (inactive) | 58.1 µM (inactive) | > 100 µM (inactive) | > 100 µM (inactive) | 27.2 µM (inactive) | > 100 µM (inactive) | > 100 µM | > 100 µM (inactive) | > 100 µM (inactive) | > 100 µM (inactive) | > 100 µM (inactive) | > 100 µM (inactive) | > 100 µM (inactive) | > 100 µM (inactive) | > 100 µM (inactive) | > 100 µM (inactive) | > 100 µM (inactive)
CC(C)c1cc(OCC(O)CO)cc(C(C)C)c1 (stereo unspecified) | > 100 µM (inactive) | > 100 µM (inactive) | > 100 µM (inactive) | > 100 µM (inactive) | > 100 µM (inactive) | > 100 µM (inactive) | > 100 µM | > 100 µM (inactive) | > 100 µM (inactive) | > 100 µM (inactive) | > 100 µM (inactive) | > 100 µM (inactive) | > 100 µM (inactive) | > 100 µM (inactive) | > 100 µM (inactive) | > 100 µM (inactive) | > 100 µM (inactive)
